# Measured values as given in patent US10555919B2, “Melatonin in autoimmune disease” (The Brigham and Women's Hopsital, Inc., priority 2014, dated 2020).
# Entries after “also recorded” stand apart in the source; their conditions may differ.
# Experiments:
# [1] = tested on: Tr1 cells; assay: In vitro mouse Tr1 cell differentiation; assay type: cell-based
# Experimental: (§1) Naive CD4+ T cells (CD4+CD44loCD62LhiCD25−) were from the spleen and lymph node of C57BL/6 wild-type, MTNR1A−, NFIL3−, REV-ERBα, C/EBPα-deficient or RORα-deficient mice using magnetic beads (CD4+ T cell isolation kit, Miltenyi Biotec). All experiments were started between 7 and 9 am. Cells were activated with plate-bound anti-CD3 (2 μg/ml; 14-0031-86; eBioscience) and anti-CD28 (2 μg/ml; 16-0281-86; eBioscience). Mouse IL-27 (30 ng/ml; 34-8271; Biolegend) was added for the generation of Tr1 cells. IL-6 (30 ng/ml; 406-ML-025; R&D Systems), TGF-β1 (15 ng/ml; 130-095-067; Miltenyi Biotec), anti-IL-4 (2.5 μg/ml; C17.8; Biolegend) and anti-IFN-γ (5 μg/ml; XMG1.2; Biolegend) were added for the generation of Th17 cells. Recombinant mouse IL-23 (30 ng/ml; 1887-ML-010; R&D Systems) was added at day 2. For some experiments IL-6 and […] (10 ng/ml; 401-ML-025; R&D Systems) or TGF-β1 and IL-21 (100 ng/ml; 594-ML-010; R&D Systems) were used in instead for Th17 cell differentiation. IL-12 (30 ng/ml; 419-ML-010; R&D Systems) and anti-IL-4 (2.5 μg/ml; C17.8; Biolegend) were used for the generation of Th1 cells. IL-4 (30 ng/ml; 404-ML-010; R&D Systems) and anti-IFN-γ (5 μg/ml; XMG1.2; Biolegend) was added for the generation of Th2 cells. TGF-β1 (15 ng/ml; 130-095-067; Miltenyi Biotec) was used for the generation of Foxp3+ Tregs. Melatonin (Gador, Argentina), Agomelatin, and CGP-52608 (Sigma-Aldrich) were added at the start of the cultures and at day 2, at a final concentration of 2-20 ng/ml.
# [2] = tested on: ROR-α; assay: Chromatin immunoprecipitation with anti-ROR-α at the il10 promoter; assay type: cell-based, mouse; conditions: T-cell activation under Tr1 polarizing conditions in the presence of melatonin
# Experimental: DNA-protein complexes in cells were crosslinked with 4% paraformaldehyde and lysed with 0.35 ml lysis buffer (1% SDS, 10 mM EDTA and 50 mM Tris-HCl, pH 8.1) containing 1×protease inhibitor ‘cocktail’ (Roche Molecular Biochemicals). Chromatin was sheared by sonication and supernatants collected after centrifugation were diluted in buffer (1% Triton X-100, 2 mM EDTA, 150 mM NaCl and 20 mM Tris-HCl, pH 8.1). 5 μg antibody was prebound for a minimum of 6 hs to protein A and protein G Dynal magnetic beads (Invitrogen) and samples were washed three times with ice-cold PBS containing 5% BSA, and then were added to the diluted chromatin, followed by immunoprecipitation overnight. The magnetic bead-chromatin complexes were then washed three times in radioimmunoprecipitation buffer (50 mM HEPES, pH 7.6, 1 mM EDTA, 0.7% Na deoxycholate, 1% NP-40 and 0.5 M LiCl), followed by two washes with Tris-EDTA buffer. Immunoprecipitated chromatin was then extracted with a solution of 1% SDS and 0.1 MNaHCO3 and was heated at 65° C. for at least 6 h for reversal of the paraformaldehyde cross-linking. DNA fragments were purified with a QIAquick DNA purification Kit (Qiagen) and were analyzed by SYBR Green real-time PCR (Takara Bio).
# [3] = tested on: 2D2+ transgenic T cells; assay: In vitro activation of naive 2D2+ transgenic T cells / CD4+ T cells (MOG35-55 and DCs or anti-CD3 and anti-CD28); assay type: cell-based, mice
# [4] = tested on: murine Th17 cell differentiation; assay: In vitro mouse Th17 cell differentiation; assay type: cell-based; conditions: melatonin 2 ng/ml
# Experimental: For intracellular cytokine staining, cells were stimulated for 4 h at 37° C. with phorbol 12-myristate 13-acetate (50 ng/ml; Sigma), ionomycin (1 μg/ml; Sigma) and monensin (GolgiStop; 1 μg/ml; BD Biosciences). After being stained for surface markers, cells were fixed and made permeable according to the manufacturer's instructions (BD Biosciences). All antibodies against cytokines were from Biolegend. All experiments were started at the same time (8-9 am). Data were collected with a LSR II or FACSAria (BD Biosciences), then were analyzed with FlowJo software (Treestar).
# as §1
# Secreted cytokines were measured in tissue culture supernatants after 72-96 hs by enzyme-linked immunosorbent assay as previously described (Farez et al., 2009).
# [5] = tested on: nr1d1 reporter-transfected HEK293 cells; assay: nr1d1 promoter luciferase reporter assay; assay type: cell-based; conditions: nr1d1 promoter controls luciferase expression
# Text: The IL-10 promoter reporter and C-Maf and AhR vectors were previously described (Apetoh et al., 2010), vector expressing ROR-α were purchased from PlasmID at Harvard Medical School. Vectors coding for C/EBPα (44627) and Bmal reporter (46824) were purchased from Addgene. The retrovirus used for nfil3 overexpression in T cells was graciously provided by Laura Hooper (UT Southwestern, TX, USA). The retrovirus used for nr1d1 overexpression in T cells was graciously provided by Bart Staels (Institut Pasteur, Lille, France, […]). The nr1d1 promoter reporter was graciously provide by Vincent Laudent (Ecole Normale Supérieure, Lyon, France).
# HEK293 cells were grown in DMEM supplemented with 10% FBS and were transfected with FuGENE HD transfection reagent and 2 μg of each plasmids according the manufacturer's instructions (Roche). Firefly and renilla luciferase activity was analyzed 48 h after transfection and 24 h after treatment with a Dual Luciferase Assay kit (Promega).
# [6] = during Th17 cell differentiation, 3 days
smiles,measurement,setting,value
"COc1ccc2[nH]cc(CCNC(C)=O)c2c1 [Melatonin, N-Acetyl-5-methoxytryptamine]","expression of IL-10 and the Tr1-associated molecules il21, ahr and cmaf","[1]; Tr1 polarizing conditions, melatonin 2 ng/ml",boosted
same,suppressive activity of Tr1 cells in vitro,"[1]; co-culture with CFSE-labeled CD4+ T cells, 48 hs",boosted
same,binding of ROR-α to the il10 promoter,[2],increased
same,ability of melatonin-pretreated DCs to activate 2D2+ T cells,[3]; in the presence of MOG35-55,did not affect
same,"apoptosis in CD4+ T cells (annexin V and propidium iodide staining, Bcl-xl levels)","[3]; stimulated with antibodies against CD3 and CD28, 3 days",did not increase
same,in vitro activation of naive 2D2+ transgenic T cells,[3]; with MOG35-55 and DCs or with antibodies to CD3 and CD28 in the absence of DCs,suppressed
same,differentiation of MTNR1A-deficient (MTNR1A KO) Th17 cells,[4]; MTNR1A KO,failed to suppress; also recorded: boosted
same,expression of both ROR-α and ROR-γt,[4]; Th17 polarizing conditions,reduced
same,expression of IL-10,"[4]; Th17 polarizing conditions, 72 hs",increased
same,expression of the ROR-γt repressor NFIL3,[4]; [6],increase
same,nr1d1 expression,[4]; [6],suppressed
same,"differentiation of Th17 cells (rorc, IL-17, IL-23 receptor)","[4]; wild type, agomelatine 20 ng/ml, ramelteon 10 ng/ml, CGP 52608 20 ng/ml",interfered
same,luciferase activity,[5],decreased
